Source: paper PMC3914206

Legend:
panel of 442 kinases [1] = biological target: T1, panel of 442 kinases (Homo sapiens, UniProt P07949, V804M); assay type: binding; design: KINOMEscan: ABL1(F317L)-phosphorylated / KINOMEscan: ABL1(H396P)-nonphosphorylated / KINOMEscan: ABL1(H396P)-phosphorylated / KINOMEscan: ABL1(M351T)-phosphorylated / KINOMEscan: ABL1(T315I)-phosphorylated / KINOMEscan: ABL1-nonphosphorylated / KINOMEscan: ABL1-phosphorylated / KINOMEscan: ACVR2A / KINOMEscan: ACVR2B / KINOMEscan: ADCK3 / KINOMEscan: ADCK4 / KINOMEscan: AKT1 / KINOMEscan: AKT3 / KINOMEscan: ALK / KINOMEscan: ARK5 / KINOMEscan: AURKA / KINOMEscan: AURKC / KINOMEscan: BIKE / KINOMEscan: BMPR1A / KINOMEscan: BMPR1B / KINOMEscan: BMX / KINOMEscan: BRK / KINOMEscan: BRSK1 / KINOMEscan: BRSK2 / KINOMEscan: CAMK1 / KINOMEscan: CAMK1D / KINOMEscan: CAMK1G / KINOMEscan: CAMK2A / KINOMEscan: CAMK2B / KINOMEscan: AAK1 / KINOMEscan: CAMK2D / KINOMEscan: CAMK2G / KINOMEscan: ABL1(F317I)-nonphosphorylated / KINOMEscan: ABL1(F317I)-phosphorylated / KINOMEscan: ABL1(F317L)-nonphosphorylated: unit: % Ctrl; conditions: Compound Concentration 10 µM
T1 construct: purchased KINOMEscan
From the text: (§1) We assessed the selectivity of members of this scaffold using the KINOMEscan methodology across a near comprehensive panel of 442 kinases [[18,27]].

panel of 442 kinases [2] = biological target: T2, panel of 442 kinases (Homo sapiens, UniProt P31749); assay type: binding; design: KINOMEscan: ABL1(F317L)-phosphorylated / KINOMEscan: ABL1(H396P)-nonphosphorylated / KINOMEscan: ABL1(H396P)-phosphorylated / KINOMEscan: ABL1(M351T)-phosphorylated / KINOMEscan: ABL1(T315I)-phosphorylated / KINOMEscan: ABL1-nonphosphorylated / KINOMEscan: ABL1-phosphorylated / KINOMEscan: ACVR2A / KINOMEscan: ACVR2B / KINOMEscan: ADCK3 / KINOMEscan: ADCK4 / KINOMEscan: AKT1 / KINOMEscan: AKT3 / KINOMEscan: ALK / KINOMEscan: ARK5 / KINOMEscan: AURKA / KINOMEscan: AURKC / KINOMEscan: BIKE / KINOMEscan: BMPR1A / KINOMEscan: BMPR1B / KINOMEscan: BMX / KINOMEscan: BRK / KINOMEscan: BRSK1 / KINOMEscan: BRSK2 / KINOMEscan: CAMK1 / KINOMEscan: CAMK1D / KINOMEscan: CAMK1G / KINOMEscan: CAMK2A / KINOMEscan: CAMK2B / KINOMEscan: AAK1 / KINOMEscan: CAMK2D / KINOMEscan: CAMK2G / KINOMEscan: ABL1(F317I)-nonphosphorylated / KINOMEscan: ABL1(F317I)-phosphorylated / KINOMEscan: ABL1(F317L)-nonphosphorylated: unit: % Ctrl; conditions: Compound Concentration 10 µM
T2 construct: purchased KINOMEscan
From the text: as §1

T2 sequence (P31749 whole entry): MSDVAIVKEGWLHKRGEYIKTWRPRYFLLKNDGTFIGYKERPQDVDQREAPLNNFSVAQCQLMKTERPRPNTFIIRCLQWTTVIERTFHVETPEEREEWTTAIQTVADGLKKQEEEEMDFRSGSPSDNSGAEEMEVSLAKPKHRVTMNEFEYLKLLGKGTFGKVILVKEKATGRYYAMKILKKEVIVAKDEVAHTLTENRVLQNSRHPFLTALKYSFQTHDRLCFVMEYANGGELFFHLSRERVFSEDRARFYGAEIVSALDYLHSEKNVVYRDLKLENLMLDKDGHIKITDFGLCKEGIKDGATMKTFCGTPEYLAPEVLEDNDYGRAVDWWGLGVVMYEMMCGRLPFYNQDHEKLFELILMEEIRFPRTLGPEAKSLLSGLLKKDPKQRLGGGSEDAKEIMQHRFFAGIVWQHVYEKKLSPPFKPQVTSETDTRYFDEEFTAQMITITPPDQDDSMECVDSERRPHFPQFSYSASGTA
T1 sequence (P07949 29-1114 V804M): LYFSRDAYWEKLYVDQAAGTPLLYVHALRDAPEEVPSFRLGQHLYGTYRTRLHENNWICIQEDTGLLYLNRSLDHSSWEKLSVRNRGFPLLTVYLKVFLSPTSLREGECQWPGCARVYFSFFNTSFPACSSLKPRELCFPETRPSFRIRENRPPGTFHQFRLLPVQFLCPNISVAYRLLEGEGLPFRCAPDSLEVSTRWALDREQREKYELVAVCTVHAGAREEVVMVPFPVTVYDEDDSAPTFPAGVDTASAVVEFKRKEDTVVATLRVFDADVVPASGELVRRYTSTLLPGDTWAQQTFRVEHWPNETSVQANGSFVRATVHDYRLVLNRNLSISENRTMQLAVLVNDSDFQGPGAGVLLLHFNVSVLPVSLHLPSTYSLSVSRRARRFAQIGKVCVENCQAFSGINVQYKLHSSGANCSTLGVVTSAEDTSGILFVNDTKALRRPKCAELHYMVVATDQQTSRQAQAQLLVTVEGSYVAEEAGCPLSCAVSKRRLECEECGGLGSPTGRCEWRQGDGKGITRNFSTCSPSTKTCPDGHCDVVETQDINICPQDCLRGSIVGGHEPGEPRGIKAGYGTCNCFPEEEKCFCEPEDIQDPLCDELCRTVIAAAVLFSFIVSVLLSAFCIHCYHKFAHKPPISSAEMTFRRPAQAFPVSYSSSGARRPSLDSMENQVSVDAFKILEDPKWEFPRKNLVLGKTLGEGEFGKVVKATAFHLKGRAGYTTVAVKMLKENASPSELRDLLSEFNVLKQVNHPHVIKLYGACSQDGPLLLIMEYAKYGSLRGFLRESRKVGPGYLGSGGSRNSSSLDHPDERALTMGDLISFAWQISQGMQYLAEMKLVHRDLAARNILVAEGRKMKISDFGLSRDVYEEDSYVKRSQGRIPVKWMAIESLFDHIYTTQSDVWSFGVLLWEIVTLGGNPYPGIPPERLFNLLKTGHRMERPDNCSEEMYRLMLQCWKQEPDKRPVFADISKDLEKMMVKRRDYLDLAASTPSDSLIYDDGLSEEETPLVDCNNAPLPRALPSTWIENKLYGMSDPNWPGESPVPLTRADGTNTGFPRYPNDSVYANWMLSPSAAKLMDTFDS

COc1cc(C(=O)N2CCC(N3CCN(C)CC3)CC2)ccc1Nc1ncc2c(n1)N(C1CCCC1)c1ccccc1C(=O)N2C [Compound 25, 11-cyclopentyl-2-((2-methoxy-4-(4-(4-methylpiperazin-1-yl)piperidine-1-carbonyl)phenyl)amino)-5-methyl-5H-benzo[e]pyrimido[5,4-b][1,4]diazepin-6(11H)-one]
KINOMEscan: RET(V804M) (panel of 442 kinases [1]): 100 | KINOMEscan: AKT1 (panel of 442 kinases [2]): 100

COc1cc(C(=O)N2CCC(N3CCN(C)CC3)CC2)ccc1Nc1ncc2c(n1)N1CCc3cccc(c31)C(=O)N2C [Compound 24]
KINOMEscan: AKT1 (panel of 442 kinases [2]): 90

COc1cc(C(=O)N2CCC(N3CCN(C)CC3)CC2)ccc1Nc1ncc2c(n1)N(C)c1ccccc1C(=O)N2C [15 (LRRK2-IN-1)]
KINOMEscan: RET(V804M) (panel of 442 kinases [1]): 80 | KINOMEscan: AKT1 (panel of 442 kinases [2]): 79

CCOc1cc(C(=O)N2CCC(N3CCN(C)CC3)CC2)ccc1Nc1ncc2c(n1)N(C1CCCC1)c1ccccc1C(=O)N2C [Compound 26]
KINOMEscan: RET(V804M) (panel of 442 kinases [1]): 100 | KINOMEscan: AKT1 (panel of 442 kinases [2]): 100
